Data as given in patent US10828305B2 (SHANGHAI PHARMACEUTICALS HOLDING CO., LTD., priority 2016, dated 2020).

Assays:
N87 = experiment: Proliferation inhibition assay in vitro, N87 (CellTiter-Glo); assay type: cell-based; conditions: Homo sapiens; 72 hours; read-out: IC50(nM) cell N87
Procedure, shortened: (§1)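 Cells were seeded at 8.8×10^4 cells/mL for BT-474 or 6.6×10^4 cells/mL for N87 and grown overnight. Compound was added at 9 concentrations in duplicate for 72 h at 37 °C, 5% CO2. Viability was measured by CellTiter-Glo.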

ErbB2 kinase = ErbB2 kinase (Homo sapiens, UniProt P04626); experiment: Enzymatic experiment on ErbB2 (HTRF kinEASE-TK); assay type: biochemical; conditions: ATP 4 μM; read-out: Kinase IC50 (nM) in vitro ErbB2
Chain of ErbB2 kinase (P04626 23-1255): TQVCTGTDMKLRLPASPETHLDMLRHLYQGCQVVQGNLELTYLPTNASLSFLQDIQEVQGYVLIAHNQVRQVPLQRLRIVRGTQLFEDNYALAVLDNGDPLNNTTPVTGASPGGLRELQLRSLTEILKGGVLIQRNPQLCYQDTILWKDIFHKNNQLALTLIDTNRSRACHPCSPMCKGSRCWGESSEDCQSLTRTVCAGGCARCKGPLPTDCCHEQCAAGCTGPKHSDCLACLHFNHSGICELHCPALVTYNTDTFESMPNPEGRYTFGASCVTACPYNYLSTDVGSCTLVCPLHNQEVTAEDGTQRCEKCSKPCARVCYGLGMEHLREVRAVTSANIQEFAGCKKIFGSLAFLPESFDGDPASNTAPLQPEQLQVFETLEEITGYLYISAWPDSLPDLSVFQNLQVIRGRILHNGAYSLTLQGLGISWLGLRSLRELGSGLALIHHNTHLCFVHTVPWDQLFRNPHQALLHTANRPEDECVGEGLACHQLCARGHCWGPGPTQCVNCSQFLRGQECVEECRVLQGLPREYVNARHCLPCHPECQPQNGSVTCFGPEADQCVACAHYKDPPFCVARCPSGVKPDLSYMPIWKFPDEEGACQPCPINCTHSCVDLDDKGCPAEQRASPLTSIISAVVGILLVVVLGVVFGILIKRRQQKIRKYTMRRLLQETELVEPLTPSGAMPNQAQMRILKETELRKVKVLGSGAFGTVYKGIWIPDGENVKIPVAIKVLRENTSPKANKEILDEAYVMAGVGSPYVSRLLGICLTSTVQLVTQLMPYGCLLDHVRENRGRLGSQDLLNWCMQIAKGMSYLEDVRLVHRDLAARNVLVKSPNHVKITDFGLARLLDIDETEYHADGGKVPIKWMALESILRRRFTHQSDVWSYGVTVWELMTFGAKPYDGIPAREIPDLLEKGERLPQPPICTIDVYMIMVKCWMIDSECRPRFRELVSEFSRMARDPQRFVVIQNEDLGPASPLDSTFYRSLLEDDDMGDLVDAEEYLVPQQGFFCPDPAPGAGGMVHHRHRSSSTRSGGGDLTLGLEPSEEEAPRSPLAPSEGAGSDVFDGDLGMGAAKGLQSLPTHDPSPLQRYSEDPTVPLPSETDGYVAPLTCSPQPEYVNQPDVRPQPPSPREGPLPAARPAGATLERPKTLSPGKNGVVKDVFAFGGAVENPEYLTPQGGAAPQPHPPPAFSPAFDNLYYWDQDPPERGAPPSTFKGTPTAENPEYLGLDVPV
Procedure, shortened: (§2)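 HTRF kinEASE-TK with biotinylated TK substrate in HEPES pH 7.0 buffer containing MnCl2, MgCl2 and DTT; ErbB2 at 0.06 ng/μl with 4 μM ATP, EGFR at 0.06 units/μl with 1.65 μM ATP, 30 min at room temperature after 5 min enzyme/substrate–compound preincubation. Ten-point 3-fold dilutions; Eu antibody/SA-XL665 detection, 665/620 ratio.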

EGFR kinase = EGFR kinase (Homo sapiens, UniProt P00533); experiment: Enzymatic experiment on EGFR (HTRF kinEASE-TK); assay type: biochemical; conditions: ATP 1.65 μM; read-out: Kinase IC50 (nM) in vitro EGFR
Chain of EGFR kinase (P00533 25-1210): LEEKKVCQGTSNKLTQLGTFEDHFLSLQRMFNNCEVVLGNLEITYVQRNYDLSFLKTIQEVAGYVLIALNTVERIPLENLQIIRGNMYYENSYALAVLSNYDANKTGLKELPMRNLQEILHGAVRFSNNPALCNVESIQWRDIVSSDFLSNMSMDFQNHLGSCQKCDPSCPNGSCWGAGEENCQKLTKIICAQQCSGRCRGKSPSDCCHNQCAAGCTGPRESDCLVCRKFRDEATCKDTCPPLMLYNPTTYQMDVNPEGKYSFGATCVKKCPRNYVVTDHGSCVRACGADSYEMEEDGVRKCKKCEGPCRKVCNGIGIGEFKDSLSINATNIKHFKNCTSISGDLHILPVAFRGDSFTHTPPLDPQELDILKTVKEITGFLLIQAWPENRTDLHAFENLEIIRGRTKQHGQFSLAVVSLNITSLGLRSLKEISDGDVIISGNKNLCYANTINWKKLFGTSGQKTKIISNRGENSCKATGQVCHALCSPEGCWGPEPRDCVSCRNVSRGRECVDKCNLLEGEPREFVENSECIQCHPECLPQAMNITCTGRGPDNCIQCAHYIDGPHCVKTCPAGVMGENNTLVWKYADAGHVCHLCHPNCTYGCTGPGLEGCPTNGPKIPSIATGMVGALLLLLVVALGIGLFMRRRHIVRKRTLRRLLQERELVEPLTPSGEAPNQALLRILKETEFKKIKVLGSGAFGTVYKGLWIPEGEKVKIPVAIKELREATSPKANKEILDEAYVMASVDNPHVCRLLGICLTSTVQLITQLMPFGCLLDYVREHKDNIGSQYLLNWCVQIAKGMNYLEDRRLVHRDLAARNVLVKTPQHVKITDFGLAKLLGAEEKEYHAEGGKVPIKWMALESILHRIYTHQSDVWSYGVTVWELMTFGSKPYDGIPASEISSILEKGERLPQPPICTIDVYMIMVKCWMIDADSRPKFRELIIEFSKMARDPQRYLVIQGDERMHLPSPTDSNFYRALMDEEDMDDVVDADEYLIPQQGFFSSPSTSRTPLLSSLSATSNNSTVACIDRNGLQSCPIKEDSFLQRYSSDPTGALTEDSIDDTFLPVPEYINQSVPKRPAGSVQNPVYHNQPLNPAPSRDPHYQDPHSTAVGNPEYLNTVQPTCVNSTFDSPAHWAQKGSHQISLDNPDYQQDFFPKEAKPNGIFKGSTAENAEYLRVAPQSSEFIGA
Procedure, shortened: as §2

BT-474 = experiment: Proliferation inhibition assay in vitro, BT-474 (CellTiter-Glo); assay type: cell-based; conditions: Homo sapiens, 72 hours, read-out: IC50(nM) cell BT-474
Procedure, shortened: as §1

CC1(C)COC(Nc2ccc3ncnc(Nc4ccc(Oc5cc6nncn6cn5)c(Cl)c4)c3c2)=N1 [Embodiment 78, N′-[3-chloro-4-([1,2,4]triazolo[4,3-c]pyrimidin-7-yloxy)phenyl)-N^6-(4,4-dimethyl-4,5-dihydrooxazol-2-yl)quinazolin-4,6-diamine]
IC50 (N87): 22.3 nM | IC50 (ErbB2 kinase): 1.8 nM | IC50 (EGFR kinase): 3.3 nM | IC50 (BT-474): 13.2 nM

Cc1cc(Nc2ncnc3ccc(-c4ccc(CNCCS(C)(=O)=O)s4)cc23)ccc1Oc1cc2nncn2cn1 [Embodiment 79]
IC50 (N87): 37.2 nM | IC50 (ErbB2 kinase): 1.7 nM | IC50 (EGFR kinase): 7.7 nM | IC50 (BT-474): 24.7 nM

Cc1cc(Nc2ncnc3ccc(-c4cc[nH]c4)cc23)ccc1Oc1cc2nncn2cn1 [Embodiment 80, N-(4-([1,2,4]triazolo[4,3-c]pyrimidin-7-yloxy)-3-methylphenyl)-6-(1H-pyrrol-3-yl)quinazolin-4-amine]
IC50 (N87): 36 nM | IC50 (ErbB2 kinase): 1 nM | IC50 (EGFR kinase): 12.6 nM | IC50 (BT-474): 120 nM

CC1(C)COC(Nc2ccc3ncnc(Nc4ccc(Oc5cc6nncn6cn5)c(C(F)(F)F)c4)c3c2)=N1 [Embodiment 81, N^4-(3-trifluoromethyl-4-([1,2,4]triazolo[4,3-c]pyrimidin-7-yloxy)phenyl)-N^6-(4,4-dimethyl-4,5-dihydrooxazol-2-yl)quinazolin-4,6-diamine]
IC50 (N87): 749 nM | IC50 (ErbB2 kinase): 16.6 nM | IC50 (EGFR kinase): 51.9 nM | IC50 (BT-474): 1270 nM

Cc1cc(Nc2ncnc3ccc(NC(=O)CCl)cc23)ccc1Oc1cc2nncn2cn1 [Embodiment 82, N-(4-((4-([1,2,4]triazolo[4,3-c]pyrimidin-7-yloxy)-3-methylphenyl)amino)quinazolin-6-yl)-2-chloroacetamide]
IC50 (N87): 5 nM | IC50 (ErbB2 kinase): 1.1 nM | IC50 (EGFR kinase): 2.2 nM | IC50 (BT-474): 7.1 nM

Cc1cc(Nc2ncnc3ccc(-n4cccc4)cc23)ccc1Oc1cc2nncn2cn1 [Embodiment 83, N-(4-([1,2,4]triazolo[4,3-c]pyrimidin-7-yloxy)-3-methylphenyl)-6-(1H-pyrrol-1-yl)-quinazolin-4-amine]
IC50 (N87): 104 nM | IC50 (ErbB2 kinase): 2.3 nM | IC50 (EGFR kinase): 36.4 nM | IC50 (BT-474): 72.7 nM

C=C(C)C(=O)Nc1ccc2ncnc(Nc3ccc(Oc4cc5nncn5cn4)c(C)c3)c2c1 [Embodiment 84, N-(4-((4-([1,2,4]triazolo[4,3-c]pyrimidin-7-yloxy)-3-methylphenyl)amino)quinazolin-6-yl)-methacrylamide]
IC50 (N87): 31.1 nM | IC50 (ErbB2 kinase): 3 nM | IC50 (EGFR kinase): 89.4 nM | IC50 (BT-474): 21.8 nM

Cc1cc(Nc2ncnc3ccc(-n4ccc(CNCCS(C)(=O)=O)c4)cc23)ccc1Oc1cc2nncn2cn1 [Embodiment 86, N-(4-([1,2,4]triazolo[4,3-c]pyrimidin-7-yloxy)-3-methylphenyl)-6-(3-(((2-(methylsulfonyl)ethyl)amino)methyl)-1H-pyrrol-1-yl)quinazolin-4-amine]
IC50 (N87): 160 nM | IC50 (ErbB2 kinase): 3.1 nM | IC50 (EGFR kinase): 7.7 nM | IC50 (BT-474): 33.8 nM

Cc1cc(Nc2ncnc3ccc(NC4=NC5(CCCC5)CO4)cc23)ccc1Oc1cc2nncn2cn1 [Embodiment 87]
IC50 (N87): 25.3 nM | IC50 (ErbB2 kinase): 1.9 nM | IC50 (EGFR kinase): 6.5 nM | IC50 (BT-474): 15.3 nM

C=CC(=O)N1CCC(Oc2cc3c(Nc4ccc(Oc5cc6nncn6cn5)c(F)c4)ncnc3cc2OC)CC1 [Embodiment 88, 1-(4-((4-((4-([1,2,4]triazolo[4,3-c]pyrimidin-7-yloxy)-3-fluorophenyl)amino)-7-methoxyquinazolin-6-yl)oxy)piperidin-1-yl)prop-2-en-1-one]
IC50 (N87): 5.2 nM | IC50 (ErbB2 kinase): 1.13 nM | IC50 (EGFR kinase): 1.9 nM | IC50 (BT-474): 6.3 nM

Cc1cc(Nc2ncnc3ccc(NC4=NCC(C)(C)O4)cc23)ccc1Oc1cc2nncn2cn1 [Embodiment 90, N^4-(4-([1,2,4]triazolo[4,3-c]pyrimidin-7-yloxy)-3-methylphenyl)-N^6-(5,5-dimethyl-4,5-dihydrooxazol-2-yl)quinazolin-4,6-diamine]
IC50 (N87): 271 nM | IC50 (ErbB2 kinase): 11.1 nM | IC50 (EGFR kinase): 494 nM | IC50 (BT-474): 185 nM

Cc1cc(Nc2ncnc3ccc(NC4=N[C@@H](C(C)C)CO4)cc23)ccc1Oc1cc2nncn2cn1 [Embodiment 91, (S)—N^4-(4-([1,2,4]triazolo[4,3-c]pyrimidin-7-yloxy)-3-methylphenyl)-N^6-(4-isopropyl-4,5-dihydrooxazol-2-yl)quinazolin-4,6-diamine]
IC50 (N87): 76.8 nM | IC50 (ErbB2 kinase): 2.76 nM | IC50 (EGFR kinase): 26.9 nM | IC50 (BT-474): 38.8 nM

C=CC(=O)N1CCC(Oc2cc3c(Nc4ccc(Oc5cc6nncn6cn5)c(Cl)c4)ncnc3cc2OC)CC1 [Embodiment 92, 1-(4-((4-((4-([1,2,4]triazolo[4,3-c]pyrimidin-7-yloxy)-3-chlorophenyl)amino)-7-methoxyquinazolin-6-yl)oxy)piperidin-1-yl)prop-2-en-1-one]
IC50 (N87): 3.4 nM | IC50 (ErbB2 kinase): 0.44 nM | IC50 (EGFR kinase): 0.7 nM | IC50 (BT-474): 2.2 nM

Cc1cc(Nc2ncnc3ccc(NC(=O)/C=C/[C@H]4CCCN4C)cc23)ccc1Oc1cc2nncn2cn1 [Embodiment 94, (R,E)-N-(4-((4-([1,2,4]triazolo[4,3-c]pyrimidin-7-yloxy)-3-methylphenyl)amino)quinazolin-6-yl)-3-(1-methylpyrrolidin-2-yl)acrylamide]
IC50 (N87): 4.7 nM | IC50 (ErbB2 kinase): 2.99 nM | IC50 (EGFR kinase): 3.16 nM | IC50 (BT-474): 4.8 nM

Cc1cc(Nc2ncnc3ccc(NC(=O)/C=C/[C@@H]4CCCN4)cc23)ccc1Oc1cc2nncn2cn1 [Embodiment 96, (S,E)-N-(4-((4-([1,2,4]triazolo[4,3-c]pyrimidin-7-yloxy)-3-methylphenyl)amino)quinazolin-6-yl)-3-(pyrrolidin-2-yl)acrylamide]
IC50 (N87): 93.5 nM | IC50 (ErbB2 kinase): 3.43 nM | IC50 (EGFR kinase): 3.79 nM | IC50 (BT-474): 55.9 nM

Cc1cc(Nc2ncnc3ccc(NC(=O)/C=C/[C@@H]4CCCN4C)cc23)ccc1Oc1cc2nncn2cn1 [Embodiment 97, (S,E)-N-(4-((4-([1,2,4]triazolo[4,3-c]pyrimidin-7-yloxy)-3-methylphenyl)amino)quinazolin-6-yl)-3-(1-methylpyrrolidin-2-yl)acrylamide]
IC50 (N87): 10 nM | IC50 (ErbB2 kinase): 4.84 nM | IC50 (EGFR kinase): 11.4 nM | IC50 (BT-474): 6.4 nM

CN1CCC[C@@H]1/C=C/C(=O)Nc1ccc2ncnc(Nc3ccc(Oc4cc5nncn5cn4)c(Cl)c3)c2c1 [Embodiment 98, (R,E)-N-(4-((4-([1,2,4]triazolo[4,3-c]pyrimidin-7-yloxy)-3-chlorophenyl)amino)quinazolin-6-yl)-3-(1-methylpyrrolidin-2-yl)acrylamide]
IC50 (N87): 2.5 nM | IC50 (ErbB2 kinase): 1.78 nM | IC50 (EGFR kinase): 1.6 nM | IC50 (BT-474): 3 nM

Cc1cc(Nc2ncnc3ccc(-c4ccc(CN(C)CCS(C)(=O)=O)o4)cc23)ccc1Oc1cc2nncn2cn1 [Embodiment 105]
IC50 (N87): 17.3 nM | IC50 (ErbB2 kinase): 1.2 nM | IC50 (EGFR kinase): 26 nM | IC50 (BT-474): 22.9 nM

Cc1cc(Nc2ncnc3ccc(NC(=S)NC(C)(C)CO)cc23)ccc1Oc1cc2nncn2cn1 [Embodiment 106, 1-(4-((4-([1,2,4]triazolo[4,3-c]pyrimidin-7-yloxy)-3-methylphenyl)amino)quinazolin-6-yl)-3-(1-hydroxy-2-methylpropan-2-yl)thiourea]
IC50 (N87): 933 nM | IC50 (ErbB2 kinase): 21.5 nM | IC50 (EGFR kinase): 445 nM | IC50 (BT-474): 264 nM

Cc1cc(Nc2ncnc3ccc(-c4cccc(NCCS(C)(=O)=O)c4)cc23)ccc1Oc1cc2nncn2cn1 [Embodiment 115]
IC50 (N87): 84 nM | IC50 (ErbB2 kinase): 5.91 nM | IC50 (EGFR kinase): 75.9 nM | IC50 (BT-474): 58.6 nM

Cc1cc(Nc2ncnc3ccc(-c4cccc(N5CCS(=O)(=O)CC5)c4)cc23)ccc1Oc1cc2nncn2cn1 [Embodiment 116, 4-(3-(4-((4-([1,2,4]triazolo[4,3-c]pyrimidin-7-yloxy)-3-methylphenyl)amino)quinazolin-6-yl)phenyl)thiomorpholin-1,1-dioxide]
IC50 (N87): 18.3 nM | IC50 (ErbB2 kinase): 1.3 nM | IC50 (EGFR kinase): 11.7 nM | IC50 (BT-474): 12.6 nM

C=CC(=O)N1CC=C(c2ccc3ncnc(Nc4ccc(Oc5cc6nncn6cn5)c(C)c4)c3c2)CC1 [Embodiment 117, 1-(4-(4-((4-([1,2,4]triazolo[4,3-c]pyrimidin-7-yloxy)-3-methylphenyl)amino)quinazolin-6-yl)-5,6-dihydropyridin-1(2H)-yl)prop-2-en-1-one]
IC50 (N87): 2.1 nM | IC50 (ErbB2 kinase): 3.6 nM | IC50 (EGFR kinase): 100 nM | IC50 (BT-474): 3.1 nM

Cc1cc(Nc2ncnc3ccc(-c4ccc(N)nn4)cc23)ccc1Oc1cc2nncn2cn1 [Embodiment 118, N-(4-([1,2,4]triazolo[4,3-c]pyrimidin-7-yloxy)-3-methylphenyl)-6-(6-aminopyridazin-3-yl)quinazolin-4-amine]
IC50 (N87): 389 nM | IC50 (ErbB2 kinase): 8.59 nM | IC50 (EGFR kinase): 28.4 nM | IC50 (BT-474): 73.4 nM

C=CC(=O)N1CCC=C(c2ccc3ncnc(Nc4ccc(Oc5cc6nncn6cn5)c(C)c4)c3c2)C1 [Embodiment 120, 1-(5-(4-((4-([1,2,4]triazolo[4,3-c]pyrimidin-7-yloxy)-3-methylphenyl)amino)quinazolin-6-yl)-3,6-dihydropyridin-1(2H)-yl)prop-2-en-1-one]
IC50 (N87): 2.68 nM | IC50 (ErbB2 kinase): 1.31 nM | IC50 (EGFR kinase): 7.41 nM | IC50 (BT-474): 5.85 nM

Cc1cc(Nc2ncnc3ccc(/C=C/CNC(=O)C4CC4)cc23)ccc1Oc1cc2nncn2cn1 [Embodiment 122, (E)-N-(3-(4-((4-([1,2,4]triazolo[4,3-c]pyrimidin-7-yloxy)-3-methylphenyl)amino)quinazolin-6-yl)allyl)cyclopropylcarboxamide]
IC50 (N87): 92 nM | IC50 (ErbB2 kinase): 2.7 nM | IC50 (EGFR kinase): 87.2 nM | IC50 (BT-474): 37 nM
